Results from article PMC7587931, “Affinity of Antifungal Isoxazolo[3,4-b]pyridine-3(1H)-Ones to Phospholipids in Immobilized Artificial Membrane (IAM) Chromatography” (Molecules, 2020).

Experiment: not given
Design: method as in PMID 31779124
Conditions: RP-LC, determined previously; cited from earlier work
In the case of `O=c1onc2[nH]c3ccccc3cc1-2` [Compound 1], the logkw is given as 2.36.
In the case of `O=c1on(Cc2ccccc2)c2nc3ccccc3cc12` [Compound 2], the logkw is given as 3.98.
In the case of `Cn1oc(=O)c2cc3ccccc3nc21` [Compound 3], the logkw is listed as 2.87.
In the case of `CC(=O)n1oc(=O)c2cc3ccccc3nc21` [Compound 4], the logkw is listed as 2.79.
For `O=C(c1ccccc1)n1oc(=O)c2cc3ccccc3nc21` [Compound 5], the logkw is given as 3.76.
For `Cc1cc(C)c2c(=O)on(Cc3ccccc3)c2n1` [Compound 6], the logkw is given as 3.68.
In the case of `CC(=O)n1oc(=O)c2c(C)cc(C)nc21` [Compound 7], the logkw is listed as 2.53.
In the case of `CCn1oc(=O)c2c(C)cc(C)nc21` [Compound 8], the logkw is listed as 2.90.
For `Cc1cc(C)c2c(=O)on(C(=O)c3ccccc3)c2n1` [Compound 9], the logkw is listed as 2.77.
For `Cc1cc(C)c2c(=O)on(C)c2n1` [Compound 10], the logkw is listed as 2.58.
For `COc1cc(Cn2oc(=O)c3c(C)cc(C)nc32)cc(OC)c1` [Compound 11], the logkw is listed as 3.83.
In the case of `CCCCn1oc(=O)c2c(C)cc(C)nc21` [Compound 13], the logkw is given as 3.69.
For `Cc1cc(C)c2c(=O)o[nH]c2n1` [Compound 14], the logkw is given as 2.07.
For `CCCn1oc(=O)c2c(C)cc(C)nc21` [Compound 15], the logkw is listed as 3.28.
In the case of `C#CCn1oc(=O)c2c(C)cc(C)nc21` [Compound 16], the logkw is given as 2.81.
For `Cc1cc(C)c2c(=O)on(C(=O)c3ccc(F)cc3)c2n1` [Compound 17], the logkw is listed as 3.70.
In the case of `COc1cc(Cn2oc(=O)c3c(C)cc(C)nc32)cc(OC)c1OC` [Compound 18], the logkw is listed as 3.67.
In the case of `COc1ccc2nc3c(cc2c1)c(=O)on3C` [Compound 19], the logkw is given as 3.14.
For `Cn1oc(=O)c2cc3cc(F)ccc3nc21` [Compound 20], the logkw is given as 2.97.
For `Cn1oc(=O)c2cc3cc(Cl)ccc3nc21` [Compound 21], the logkw is given as 3.33.
In the case of `Cc1cc2cc3c(=O)on(C)c3nc2cc1C` [Compound 22], the logkw is listed as 3.50.
In the case of `Cc1ccc2cc3c(=O)on(C)c3nc2c1` [Compound 24], the logkw is listed as 3.21.
For `COc1ccc(OC)c2nc3c(cc12)c(=O)on3C` [Compound 25], the logkw is listed as 3.23.
For `Cc1ccc2nc3c(cc2c1)c(=O)on3C` [Compound 26], the logkw is listed as 3.24.

Experiment: IAM-HPLC affinity to phospholipids (CHIIAM, gradient elution)
Format: physicochemical
Conditions: IAM.PC.DD2 column, gradient 0-85% acetonitrile, 10 mM phosphoric buffer pH 7.4, 30.0 °C
Description: Thus, the CHI/CHIIAM values range from 0 to 100, corresponding to the concentration of acetonitrile in the mobile phase and reflecting the nature of the target compound: low and high values correspond to hydrophilic and lipophilic molecules, respectively.
All the HPLC experiments were carried out using a Prominence-1 LC-2030C 3D HPLC system (Shimadzu, Japan) equipped with a Diode-Array Detection (DAD) detector and an IAM.PC.DD2 column (10 × 4.6 mm; particle size 10.0 µm with an IAM guard column; Regis Technologies, Morton Grove, IL, USA). The LabSolution system (version 5.90, Shimadzu, Japan) was applied to control the HPLC system and for data collection. Before analysis, stock solutions of solutes were diluted to obtain concentrations of 100 μg/mL; the injected volume was 5 μL. The IAM-HPLC analyses were carried with a linear gradient of 0–85% phase B (where phase A was a 10 mM phosphoric buffer at pH 7.4 and phase B was acetonitrile) at a flow rate of 1.5 mL/min. The temperature of the chromatographic column was controlled and set to 30.0 °C and the analysis time was 6.5 min. The CHIIAM indices of the studied compounds were obtained using a calibration set of reference substances using the protocol proposed by Valko et al. [33]. Each HPLC analysis was run in triplicate.
With `Cc1cc(C)c2c(=O)on(C(=O)c3ccccc3)c2n1` [Compound 9] the CHIIAM was 29.99.
With `Cc1cc(C)c2c(=O)o[nH]c2n1` [Compound 14] the CHIIAM was “migrated together with the front of the mobile phase”.
`Cn1oc(=O)c2cc3cc(Cl)ccc3nc21` [Compound 21] showed a CHIIAM of 33.40.
